# ChEMBL document CHEMBL1136126, “Development of 3D-QSAR models in cyclic ureidobenzenesulfonamides: human beta3-adrenergic receptor agonist” (Bioorg Med Chem Lett, 2003)
# pEC50: −log10 of the molar value.
# How the values were obtained:
# [1] = target: T1, Beta-3 adrenergic receptor (Homo sapiens, UniProt P13945); experiment: (§1) In vitro effective concentration against beta-3 adrenergic receptor.
# [2] = target: T1, Beta-3 adrenergic receptor; experiment: as §1; remark: listed apart in the source
# T1 sequence (P13945 whole entry): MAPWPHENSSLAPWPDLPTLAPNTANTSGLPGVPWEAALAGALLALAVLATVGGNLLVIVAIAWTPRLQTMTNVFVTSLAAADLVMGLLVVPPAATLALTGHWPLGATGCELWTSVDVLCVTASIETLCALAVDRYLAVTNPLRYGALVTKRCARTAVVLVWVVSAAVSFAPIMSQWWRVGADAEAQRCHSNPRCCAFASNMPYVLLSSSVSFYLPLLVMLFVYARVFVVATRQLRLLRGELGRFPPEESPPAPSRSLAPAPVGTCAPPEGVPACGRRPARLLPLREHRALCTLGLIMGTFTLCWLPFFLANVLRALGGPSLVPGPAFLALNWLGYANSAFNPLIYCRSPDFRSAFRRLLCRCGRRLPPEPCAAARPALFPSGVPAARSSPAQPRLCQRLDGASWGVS
pEC50 [1],pEC50 [2],Compound
8.27,8.27,CCCCCCCCN1CNN(c2ccc(S(=O)(=O)Nc3ccc(CCNC[C@H](O)c4cccnc4)cc3)cc2)C1=O
7.82,7.82,CCCCCCCCN1NCN(c2ccc(S(=O)(=O)Nc3ccc(CCNC[C@H](O)c4cccnc4)cc3)cc2)C1=O
,6.56,CCCCCCN1CC(=O)N(c2ccc(S(=O)(=O)Nc3ccc(CCNC[C@H](O)c4cccnc4)cc3)cc2)C1=O
